From the NIST ThermoML archive (doi:10.1016/j.jct.2016.08.005)

Details: Liquid, Vibrating tube method

Cc1cccs1 [2-methylthiophene]
mass density [kg/m3]
Details	283.15 K	288.15 K	293.15 K	298.15 K	303.15 K	308.15 K
100 kPa	1030.98	1025.61	1020.2	1014.79	1009.39	1003.95
2000 kPa	1032.44	1027.12	1021.76	1016.39	1011.03	1005.62
5000 kPa	1034.69	1029.45	1024.16	1018.85	1013.57	1008.23
7000 kPa	1036.18	1030.97	1025.73	1020.48	1015.23	1009.96
10000 kPa	1038.39	1033.22	1028.04	1022.84	1017.69	1012.46
15000 kPa	1041.92	1036.86	1031.77	1026.7	1021.62	1016.53
20000 kPa	1045.36	1040.39	1035.39	1030.4	1025.42	1020.43
25000 kPa	1048.69	1043.79	1038.88	1033.98	1029.11	1024.2
30000 kPa	1051.93	1047.1	1042.27	1037.45	1032.66	1027.84
35000 kPa	1055.07	1050.32	1045.56	1040.82	1036.1	1031.36
40000 kPa	1058.12	1053.43	1048.68	1044.09	1039.44	1034.78
45000 kPa	1061.09	1056.47	1051.85	1047.25	1042.68	1038.08
50000 kPa	1063.97	1059.42	1054.87	1050.33	1045.81	1041.29
55000 kPa	1066.8	1062.27	1057.79	1053.31	1048.89	1044.4
60000 kPa	1069.53	1065.07	1060.64	1056.23	1051.84	1047.43
65000 kPa	1072.21	1067.79	1063.42	1059.07	1054.72	1050.39
